# How the values were obtained:
# [1] = system: ATCC VR-1520 (H2N1) Human influenza virus
# [2] = Solubilization of dyes in aqueous polymer solution vs water, TLC spot comparison; settings: for concentration in 50 mg/ml polymer: 50 mg/ml aqueous C16-Polymer A (Example 1), approximate, from TLC spot intensity
Structure (SMILES),body weight loss ([1]; 7 days),"increase in survival time ([1]; mouse, in vivo)",concentration in 50 mg/ml polymer [2],"concentration in H2O ([2]; deionized water, unbuffered, room temperature)","solubility ([2]; deionized water (unbuffered), water, thermodynamic from solid)"
"COC1(C(=O)O)CC(O)C(N)C(C(O)C(O)CO)O1 (stereo not drawn) [positive control, neuraminic acid β-methyl glycoside]",−9.8%,2.94 h,,,
Cc1ccccc1/N=N/c1ccc(/N=N/c2c(O)ccc3ccccc23)c(C)c1 [Sudan IV],,,approximately 0.2 mg/ml,0 ng/mL,
"O=C1OC2(c3cc(Cl)c(O)cc3Oc3cc(O)c(Cl)cc32)c2ccccc21 [Dichlorofluorescein, dichlorofluorescein]",,,approximately 5 mg/ml,,≥ 10 µg/mL
